Measured values reported in US20240360178A1, “MACROCYCLIC IMMUNOMODULATORS” (Bristol-Myers Squibb Company, priority 2021, published 2024).
Positions of bridges follow the written chain, without caps; N, C: chain ends. Non-standard residues stand in square brackets, D forms with d. Residues, ends and D or L forms follow the SMILES beside them. ξ: configuration not given here. *: point of attachment. Phe(4-COOH) = N[C@@H](Cc1ccc(C(=O)O)cc1)C(=O)O; Bip = N[C@@H](Cc1ccc(-c2ccccc2)cc1)C(=O)O; Phe(3-Me) = Cc1cccc(C[C@H](N)C(=O)O)c1; hTyr = N[C@@H](CCc1ccc(O)cc1)C(=O)O; NMeF = CN[C@@H](Cc1ccccc1)C(=O)O; Cha = N[C@@H](CC1CCCCC1)C(=O)O; dPip = O=C(O)[C@H]1CCCCN1; Carboxymethyl = O=C(O)C*; NMeA = CN[C@@H](C)C(=O)O; Orn = NCCC[C@H](N)C(=O)O; Dab = NCC[C@H](N)C(=O)O; ξV = CC(C)C(N)C(=O)O; Sar = CNCC(=O)O

Target: T1, human PD-1 (Jurkat-PD-1 cells) / PE-labeled human PD-L1-Ig (Homo sapiens, UniProt Q15116)
T1 construct: expressed in transfected cells; host or cells: Jurkat cell line over-expressing human PD-1
Assay: Jurkat-PD-1 Cell Binding High-Content Screening Assay (CBA); Jurkat hPD1-PDL1 assay
Conditions: Jurkat cell line over-expressing human PD-1; PE-labeled PD-L1-Ig 20 nM final; compound incubated 2 hours at 37° C.; read-out: Jurkat HPD1-PDL1 IC50
Procedure: The ability of the compounds of formula (I) to bind to PD-1 was investigated using a Jurkat-PD-1 Cell Binding High-Content Screening Assay.
Jurkat-PD-1 Cell Binding High-Content Screening Assay (CBA)
Phycoerythrin (PE) was covalently linked to the Ig epitope tag of human PD-L1-Ig and fluorescently-labeled PD-L1-Ig was used for binding studies with a Jurkat cell line over-expressing human PD-1 (Jurkat-PD-1). Briefly, 8×10^3 Jurkat-hPD-1 cells were seeded into 384 well plates in 20 μL of DMEM supplemented with 10% fetal calf serum. 100 nL of compound was added to cells followed by incubation at 37° C. for 2 hours. Then, 5 μL of PE-labeled PD-L1-Ig (20 nM final), diluted in DMEM supplemented with 10% fetal calf serum. […] Data was collected and processed using a Cell Insight NXT High Content Imager and associated software.

T1 sequence (Q15116 25-288): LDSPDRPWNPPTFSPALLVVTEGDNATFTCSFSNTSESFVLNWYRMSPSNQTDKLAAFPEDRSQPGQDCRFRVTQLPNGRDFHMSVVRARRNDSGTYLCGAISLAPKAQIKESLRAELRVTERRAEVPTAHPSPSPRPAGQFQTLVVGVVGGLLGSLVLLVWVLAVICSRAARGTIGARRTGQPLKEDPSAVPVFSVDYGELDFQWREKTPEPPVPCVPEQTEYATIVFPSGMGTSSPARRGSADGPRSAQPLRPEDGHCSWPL

| SMILES | IC50 [µM] |
| --- | --- |
| CC(C)C[C@@H]1NC(=O)[C@H](Cc2c[nH]c3ccccc23)NC(=O)[C@H](CC(=O)O)NC(=O)[C@H](CCc2ccc(O)cc2)NC(=O)[C@H](Cc2ccccc2)NC(=O)CSC[C@@H](C(=O)N[C@@H](C)C(N)=O)NC(=O)[C@H](CO)NC(=O)[C@H](C(C)C)NC(=O)[C@H](CC(C)C)NC(=O)[C@H](CC(N)=O)NC(=O)CN(C)C(=O)[C@H](C)N(C)C(=O)[C@H](C(C)C)NC(=O)[C@H](Cc2ccc(-c3ccccc3)cc2)NC1=O [Example 1086] ({CH2CO}-F[hTyr]DWL[Bip]V[NMeA][Sar]NLVSCA-NH2; thioether N-14) | 0.25 |
| CC(C)C[C@@H]1NC(=O)[C@H](Cc2c[nH]c3ccccc23)NC(=O)[C@H](CC(=O)O)NC(=O)[C@H](Cc2ccc(O)cc2)NC(=O)[C@H](Cc2ccccc2)NC(=O)CSC[C@@H](C(=O)NCC(N)=O)NC(=O)[C@H](CO)NC(=O)[C@H](C(C)C)NC(=O)[C@H](CC(C)C)NC(=O)[C@H](CCCCN)NC(=O)CN(C)C(=O)[C@H](C)N(C)C(=O)[C@H](C(C)C)NC(=O)[C@H](Cc2ccc(-c3ccccc3)cc2)NC1=O [Example 1051] ({CH2CO}-FYDWL[Bip]V[NMeA][Sar]KLVSCG-NH2; thioether N-14) | 0.11 |
| CC(C)C[C@@H]1NC(=O)[C@H](Cc2c[nH]c3ccccc23)NC(=O)[C@H](CC(=O)O)NC(=O)[C@H](Cc2ccc(O)cc2)NC(=O)[C@H](Cc2ccccc2)NC(=O)CSC[C@@H](C(=O)NCC(N)=O)NC(=O)[C@H](CO)NC(=O)[C@H](C(C)C)NC(=O)[C@H](CC(C)C)NC(=O)[C@H](CCCN)NC(=O)CN(C)C(=O)[C@H](C)N(C)C(=O)[C@H](C(C)C)NC(=O)[C@H](Cc2ccc(-c3ccccc3)cc2)NC1=O [Example 1079] ({CH2CO}-FYDWL[Bip]V[NMeA][Sar][Orn]LVSCG-NH2; thioether N-14) | 0.22 |
| CC(C)C[C@@H]1NC(=O)[C@H](Cc2c[nH]c3ccccc23)NC(=O)[C@H](CC(=O)O)NC(=O)[C@H](Cc2ccc(C(=O)O)cc2)NC(=O)[C@H](Cc2ccccc2)NC(=O)CSC[C@@H](C(=O)N[C@@H](C)C(N)=O)NC(=O)[C@H](CO)NC(=O)[C@H](C(C)C)NC(=O)[C@H](CC(C)C)NC(=O)[C@H](CC(N)=O)NC(=O)CN(C)C(=O)[C@H](C)N(C)C(=O)[C@H](C(C)C)NC(=O)[C@H](Cc2ccc(-c3ccccc3)cc2)NC1=O [Example 1066] ({CH2CO}-F[Phe(4-COOH)]DWL[Bip]V[NMeA][Sar]NLVSCA-NH2; thioether N-14) | 0.16 |
| CC(C)C[C@@H]1NC(=O)[C@H](Cc2c[nH]c3ccccc23)NC(=O)[C@H](CC(=O)O)NC(=O)[C@H](Cc2ccc(O)cc2)NC(=O)[C@H](Cc2ccccc2)NC(=O)CSC[C@@H](C(=O)N[C@@H](C)C(N)=O)NC(=O)[C@H](CO)NC(=O)[C@H](C(C)C)NC(=O)[C@H](CC(C)C)NC(=O)[C@H](CC(N)=O)NC(=O)[C@H]2CCCCN2C(=O)[C@H]2CCCN2C(=O)[C@H](C(C)C)NC(=O)[C@H](Cc2ccc(-c3ccccc3)cc2)NC1=O [Example 1006] ({CH2CO}-FYDWL[Bip]V[dP][dPip]NLVSCA-NH2; thioether N-14) | 0.04 |
| CC(C)C[C@@H]1NC(=O)CSC[C@@H](C(=O)NCC(N)=O)NC(=O)[C@H](CO)NC(=O)[C@H](C(C)C)NC(=O)[C@H](CC(C)C)NC(=O)[C@H](CCCNC(=N)N)NC(=O)[C@H](Cc2ccccc2)N(C)C(=O)[C@H](C)N(C)C(=O)[C@H](CCCNC(=N)N)NC(=O)[C@H](Cc2ccc(-c3ccccc3)cc2)NC(=O)[C@H](C(C)C)NC(=O)[C@H](Cc2c[nH]c3ccccc23)NC(=O)[C@H](CC(=O)O)NC(=O)[C@H](Cc2ccc(O)cc2)NC1=O [Example 1077] ({CH2CO}-LYDWV[Bip]R[NMeA][NMeF]RLVSCG-NH2; thioether N-14) | 0.21 |

Results, then the compound that gave them:

| IC50 [µM] | SMILES |
| --- | --- |
| 0.06 | CC(C)C[C@@H]1NC(=O)[C@H](CCCNC(=N)N)NC(=O)CN(C)C(=O)[C@H](C)N(C)C(=O)[C@H](C(C)C)NC(=O)[C@H](Cc2ccc(-c3ccccc3)cc2)NC(=O)[C@H](C(C)C)NC(=O)[C@H](Cc2c[nH]c3ccccc23)NC(=O)[C@H](CC(=O)O)NC(=O)[C@H](Cc2ccc(O)cc2)NC(=O)[C@H](Cc2ccccc2)NC(=O)CSC[C@@H](C(=O)NCC(N)=O)NC(=O)[C@H](CO)NC(=O)[C@H](C(C)C)NC1=O [Example 1230] ({CH2CO}-FYDWV[Bip]V[NMeA][Sar]RLVSCG-NH2; thioether N-14) |
| 0.06 | CC(C)C[C@@H]1NC(=O)[C@H](Cc2c[nH]c3ccccc23)NC(=O)[C@H](CC(=O)O)NC(=O)[C@H](Cc2ccc(O)cc2)NC(=O)[C@H](Cc2ccccc2)NC(=O)CSC[C@@H](C(=O)N[C@@H](C)C(N)=O)NC(=O)[C@H](CO)NC(=O)[C@H](C(C)C)NC(=O)[C@H](CC(C)C)NC(=O)[C@H](CCN)NC(=O)[C@H]2CCCN2C(=O)[C@H](CCCN)NC(=O)[C@H](C(C)C)NC(=O)[C@H](Cc2ccc(-c3ccccc3)cc2)NC1=O [Example 1421] ({CH2CO}-FYDWL[Bip]V[Orn][dP][Dab]LVSCA-NH2; thioether N-14) |
| 0.03 | Cc1cccc(C[C@@H]2NC(=O)[C@H](CC(=O)O)NC(=O)[C@H](Cc3ccc(O)cc3)NC(=O)[C@H](CC(N)=O)NC(=O)CSC[C@@H](C(=O)N[C@@H](C)C(N)=O)NC(=O)[C@H]([C@@H](C)O)NC(=O)[C@H](C(C)C)NC(=O)[C@H](CC3CCCCC3)NC(=O)[C@H](CCN)NC(=O)[C@H](Cc3ccccc3)N(C)C(=O)[C@H](CCCN)NC(=O)[C@H](CCC(=O)O)NC(=O)[C@H](Cc3ccc(-c4ccccc4)cc3)NC(=O)C(C(C)C)NC2=O)c1 (stereo partly drawn) [Example 1447] ({CH2CO}-NYD[Phe(3-Me)][ξV][Bip]E[Orn][NMeF][Dab][Cha]VTCA-NH2; thioether N-14) |
| 0.9 | CC(C)C[C@@H]1NC(=O)[C@H](Cc2c[nH]c3ccccc23)NC(=O)[C@H](CC(=O)O)NC(=O)[C@H](Cc2ccccc2)NC(=O)[C@H](Cc2ccccc2)NC(=O)CSC[C@@H](C(=O)N[C@@H](C)C(N)=O)NC(=O)[C@H](CO)NC(=O)[C@H](C(C)C)NC(=O)[C@H](CC(C)C)NC(=O)[C@H](CC(N)=O)NC(=O)CN(C)C(=O)[C@H](C)N(C)C(=O)[C@H](C(C)C)NC(=O)[C@H](Cc2ccc(-c3ccccc3)cc2)NC1=O [Example 1165] ({CH2CO}-FFDWL[Bip]V[NMeA][Sar]NLVSCA-NH2; thioether N-14) |
| 0.16 | CC(C)C[C@@H]1NC(=O)[C@H](Cc2c[nH]c3ccccc23)NC(=O)[C@H](CC(=O)O)NC(=O)[C@H](Cc2ccc(O)cc2)NC(=O)[C@H](Cc2ccccc2)NC(=O)CSC[C@@H](C(=O)NCC(N)=O)NC(=O)[C@H]([C@@H](C)O)NC(=O)[C@H](C(C)C)NC(=O)[C@H](CC(C)C)NC(=O)[C@H](CC(N)=O)NC(=O)[C@H]2CCCN2C(=O)[C@H](C)N(C)C(=O)[C@H](C(C)C)NC(=O)[C@H](Cc2ccc(-c3ccccc3)cc2)NC1=O [Example 1395] ({CH2CO}-FYDWL[Bip]V[NMeA][dP]NLVTCG-NH2; thioether N-14) |
| 0.13 | CC(C)C[C@@H]1NC(=O)CSC[C@@H](C(=O)N[C@@H](C)C(N)=O)NC(=O)[C@H]([C@@H](C)O)NC(=O)[C@H](C(C)C)NC(=O)[C@H](CC(C)C)NC(=O)[C@H](CCCNC(=N)N)NC(=O)[C@H](Cc2ccccc2)N(C)C(=O)[C@H](C)N(C)C(=O)[C@H](CCCNC(=N)N)NC(=O)[C@H](Cc2ccc(-c3ccccc3)cc2)NC(=O)[C@H](C(C)C)NC(=O)[C@H](Cc2c[nH]c3ccccc23)NC(=O)[C@H](CC(=O)O)NC(=O)[C@H](Cc2ccc(O)cc2)NC1=O [Example 1319] ({CH2CO}-LYDWV[Bip]R[NMeA][NMeF]RLVTCA-NH2; thioether N-14) |
| 0.11 | CC(C)C[C@@H]1NC(=O)[C@H](CCCNC(=N)N)NC(=O)[C@H](Cc2ccccc2)N(C)C(=O)[C@H](C)N(C)C(=O)[C@H](CCCNC(=N)N)NC(=O)[C@H](Cc2ccc(-c3ccccc3)cc2)NC(=O)[C@H](C(C)C)NC(=O)[C@H](Cc2c[nH]c3ccccc23)NC(=O)[C@H](CC(=O)O)NC(=O)[C@H](Cc2ccc(O)cc2)NC(=O)[C@H](Cc2ccccc2)NC(=O)CSC[C@@H](C(=O)NCC(N)=O)NC(=O)[C@H](CCCN)NC(=O)[C@H](C(C)C)NC1=O [Example 1338] ({CH2CO}-FYDWV[Bip]R[NMeA][NMeF]RLV[Orn]CG-NH2; thioether N-14) |
| 0.12 | CC(C)C[C@@H]1NC(=O)[C@H](CCCNC(=N)N)NC(=O)[C@H](Cc2ccccc2)N(C)C(=O)[C@H](C)N(C)C(=O)[C@H](CCCNC(=N)N)NC(=O)[C@H](Cc2ccc(-c3ccccc3)cc2)NC(=O)[C@H](C(C)C)NC(=O)[C@H](Cc2c[nH]c3ccccc23)NC(=O)[C@H](CC(=O)O)NC(=O)[C@H](Cc2ccc(OCC(=O)O)cc2)NC(=O)[C@H](Cc2ccc(C(=O)O)cc2)NC(=O)CSC[C@@H](C(=O)NCC(N)=O)NC(=O)[C@H](CO)NC(=O)[C@H](C(C)C)NC1=O [Example 1300] ({CH2CO}-[Phe(4-COOH)]Y(Carboxymethyl)DWV[Bip]R[NMeA][NMeF]RLVSCG-NH2; thioether N-14) |
| 0.61 | CC(C)C[C@@H]1NC(=O)CSC[C@@H](C(=O)NCC(N)=O)NC(=O)[C@H](CO)NC(=O)[C@H](C(C)C)NC(=O)[C@H](CC(C)C)NC(=O)[C@H](CC(N)=O)NC(=O)CN(C)C(=O)[C@H](C)N(C)C(=O)[C@H](C(C)C)NC(=O)[C@H](Cc2ccc(-c3ccccc3)cc2)NC(=O)[C@H](CC(C)C)NC(=O)[C@H](Cc2c[nH]c3ccccc23)NC(=O)[C@H](CC(=O)O)NC(=O)[C@H](Cc2ccc(O)cc2)NC1=O [Example 1141] ({CH2CO}-LYDWL[Bip]V[NMeA][Sar]NLVSCG-NH2; thioether N-14) |
